In patent US20230107642A1 (Erasca, Inc., priority 2020, published 2023):
Values belong to the compound of their own block, whether it stands above or below them.

Biological target: T1, Cys12 of the KRAS 4B G12C protein (Homo sapiens, UniProt P01116, G12C)
T1 construct: This protein contained 188 amino acids in total, including an N-terminal 6-Histidine tag; made in house; host or cells: E. coli BL21
Test: In vitro covalent adduct formation (CAF) assay, LC-MS intact mass
Assay type: binding
Details: for % CAF 10 uM @ 60 min: 10 uM compound; for CAF (% after 1 hour): 10 μM compound
How it was run: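 Percent covalent modification from intact-mass LC-MS, by relative free versus adducted protein (adducts within 1 Da of expected mass). Reaction: 10 μM compound with 5 μM E. coli-expressed, GDP-exchanged KRAS 4B G12C in TBS pH 7.4, 4% DMSO, 1 h at 22° C.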

% CAF 10 uM @ 60 min (60 min): 88.5%
Structure (SMILES): C=CC(=O)N1[C@H](C)CN(c2nc(=O)n3c4c(c(-c5c(F)cc(F)cc5F)c(C(F)(F)F)cc24)SC[C@@H]3COC)C[C@@H]1C [Example 1374, (S)-7-((3S,5R)-4-acryloyl-3,5-dimethylpiperazin-1-yl)-3-(methoxymethyl)-9-(trifluoromethyl)-10-(2,4,6-trifluorophenyl)-2,3-dihydro-5H-[1,4]thiazino[2,3,4-ij]quinazolin-5-one]

CAF (% binding after 60 min): 96%
Structure (SMILES): C=CC(=O)N1[C@H](C)CN(c2nc(=O)n3c4c(c(-c5ccc(F)c(Cl)c5)c(C(F)(F)F)cc24)SC[C@H](OC)C3)C[C@@H]1C [Example 1045, (R)-8-((3S,5R)-4-acryloyl-3,5-dimethylpiperazin-1-yl)-11-(3-chloro-4-fluorophenyl)-3-methoxy-10-(trifluoromethyl)-3,4-dihydro-2H,6H-[1,4]thiazepino[2,3,4-ij]quinazolin-6-one]

% CAF 10 uM @ 60 min (60 min): 83.9%
Structure (SMILES): C=CC(=O)N1[C@H](C)CN(c2nc(=O)n3c4c(c(-c5cc(Cl)c(F)cc5F)c(C(F)(F)F)cc24)SC[C@@H]3CN(C)C)C[C@@H]1C (atropisomer, axis not shown) [Example 1376, (3S,10S)-7-((3S,5R)-4-acryloyl-3,5-dimethylpiperazin-1-yl)-10-(5-chloro-2,4-difluorophenyl)-3-((dimethylamino)methyl)-9-(trifluoromethyl)-2,3-dihydro-5H-[1,4]thiazino[2,3,4-ij]quinazolin-5-one]

CAF (% binding after 60 min): 97%
Structure (SMILES): C=CC(=O)N1[C@H](C)CN(c2nc(=O)n3c4c(c(-c5ccc(F)cc5F)c(C(F)(F)F)cc24)SC[C@H](OCOC)C3)C[C@@H]1C [Example 1011, (3R)-8-((3S,5R)-4-acryloyl-3,5-dimethylpiperazin-1-yl)-11-(2,4-difluorophenyl)-3-(methoxymethoxy)-10-(trifluoromethyl)-3,4-dihydro-2H,6H-[1,4]thiazepino[2,3,4-ij]quinazolin-6-one]

% CAF 10 uM @ 60 min (60 min incubation): 71.7%
Structure (SMILES): C=CC(=O)N1[C@H](C)CN(c2nc(=O)n3c4c(c(-c5cc(Cl)c(F)cc5F)c(C(F)(F)F)cc24)SC[C@H](N2CCOCC2)C3)C[C@@H]1C (atropisomer, axis not shown) [Example 1114, (3R,11R)-8-((3S,5R)-4-acryloyl-3,5-dimethylpiperazin-1-yl)-11-(5-chloro-2,4-difluorophenyl)-3-morpholino-10-(trifluoromethyl)-3,4-dihydro-2H,6H-[1,4]thiazepino [2,3,4-ij]quinazolin-6-one]

% CAF 10 uM @ 60 min (60 min): 96%
Structure (SMILES): C=CC(=O)N1[C@H](C)CN(c2nc(=O)n3c4c(c(-c5ccc(F)c(Cl)c5)c(C(F)(F)F)cc24)SC[C@@H]3COC)C[C@@H]1C [Example 1316, (S)-7-((3S,5R)-4-acryloyl-3,5-dimethylpiperazin-1-yl)-10-(3-chloro-4-fluorophenyl)-3-(methoxymethyl)-9-(trifluoromethyl)-2,3-dihydro-5H-[1,4]thiazino[2,3,4-ij]quinazolin-5-one]

CAF (% binding after 60 min): 98%
Structure (SMILES): C=CC(=O)N1CCN(c2nc(=O)n3c4c(c(-c5ccc(F)cc5)c(C(F)(F)F)cc24)SC[C@H](OCCOC)C3)CC1 [Example 1016, (R)-8-(4-acryloylpiperazin-1-yl)-11-(4-fluorophenyl)-3-(2-methoxyethoxy)-10-(trifluoromethyl)-3,4-dihydro-2H,6H-[1,4]thiazepino[2,3,4-ij]quinazolin-6-one]

% CAF 10 uM @ 60 min (60 min): 96.4%
Structure (SMILES): C=CC(=O)N1[C@H](C)CN(c2nc(=O)n3c4c(c(-c5ccc(F)cc5F)c(C(F)(F)F)cc24)SC[C@@H]3CN2C[C@@H]3C[C@H]2CO3)C[C@@H]1C (atropisomer, axis not shown) [Example 1301, (3S)-3-((1S,4S)-2-oxa-5-azabicyclo[2.2.1]heptan-5-ylmethyl)-7-((3S,5R)-4-acryloyl-3,5-dimethylpiperazin-1-yl)-10-(2,4-difluorophenyl)-9-(trifluoromethyl)-2H-[1,4]thiazino[2,3,4-ij]quinazolin-5(3H)-one]

CAF (% binding after 60 min): 96%
Structure (SMILES): C=CC(=O)N1[C@H](C)CN(c2nc(=O)n3c4c(c(-c5ccc(F)cc5)c(C(F)(F)F)cc24)SC[C@@H](OCOC)C3)C[C@@H]1C [Example 1010, (S)-8-((3S,5R)-4-acryloyl-3,5-dimethylpiperazin-1-yl)-11-(4-fluorophenyl)-3-(methoxymethoxy)-10-(trifluoromethyl)-3,4-dihydro-2H,6H-[1,4]thiazepino[2,3,4-ij]quinazolin-6-one]

% CAF 10 uM @ 60 min (60 min): 94.4%
Structure (SMILES): C=CC(=O)N1[C@H](C)CN(c2nc(=O)n3c4c(c(-c5cc(Cl)c(F)cc5F)c(C(F)(F)F)cc24)SC[C@@H]3COCOC)C[C@@H]1C (atropisomer, axis not shown) [Example 1370, (3S,10R)-7-((3S,5R)-4-acryloyl-3,5-dimethylpiperazin-1-yl)-10-(5-chloro-2,4-difluorophenyl)-3-((methoxymethoxy)methyl)-9-(trifluoromethyl)-2,3-dihydro-5H-[1,4]thiazino[2,3,4-ij]quinazolin-5-one]

CAF (% after 1 hour): 57%
Structure (SMILES): C=C(F)C(=O)N1CCN(c2nc(=O)n3c4c(c(-c5ccc(F)cc5)c(C(F)(F)F)cc24)SC[C@@H](OC)C3)CC1 [Example 1223, (S)-8-(4-(2-Fluoroacryloyl)piperazin-1-yl)-11-(4-fluorophenyl)-3-methoxy-10-(trifluoromethyl)-3,4-dihydro-2H,6H-[1,4]thiazepino[2,3,4-ij]quinazolin-6-one]

% CAF 10 uM @ 60 min (60 min): 96.8%
Structure (SMILES): C=CC(=O)N1[C@H](C)CN(c2nc(=O)n3c4c(c(-c5ccc(F)cc5F)c(Cl)cc24)SC[C@@H]3COC)C[C@@H]1C [Example 1343a, (3S)-7-((3S,5R)-4-acryloyl-3,5-dimethylpiperazin-1-yl)-9-chloro-10-(2,4-difluorophenyl)-3-(methoxymethyl)-2,3-dihydro-5H-[1,4]thiazino[2,3,4-ij]quinazolin-5-one]

The remaining lines, values behind:

Structure (SMILES): C=CC(=O)N1CCN(c2nc(=O)n3c4c(c(-c5cc(Cl)c(F)cc5F)c(C(F)(F)F)cc24)SC[C@@H](OCCOC)C3)CC1 [Example 1023, (3S)-8-(4-acryloylpiperazin-1-yl)-11-(5-chloro-2,4-difluorophenyl)-3-(2-methoxyethoxy)-10-(trifluoromethyl)-3,4-dihydro-2H,6H-[1,4]thiazepino[2,3,4-ij]quinazolin-6-one]
CAF (% binding after 60 min): 97%

Structure (SMILES): O=C1CC2CN(c3nc(=O)n4c5c(c(-c6ccc(F)cc6F)c(C(F)(F)F)cc35)SCCC4)CC(C1)N2C(=O)/C=C/CF [Example 1200, (E)-11-(2,4-difluorophenyl)-8-(9-(4-fluorobut-2-enoyl)-7-oxo-3,9-diazabicyclo[3.3.1]nonan-3-yl)-10-(trifluoromethyl)-3,4-dihydro-2H,6H-[1,4]thiazepino[2,3,4-ij]quinazolin-6-one]
CAF (% after 1 hour): 73%

Structure (SMILES): C=CC(=O)N1C[C@H](C)N(c2nc(=O)n3c4c(c(-c5cc(Br)c(F)cc5F)c(C(F)(F)F)cc24)SCC2(COC2)C3)C[C@H]1C [Example 1436, 8′-((2S,5R)-4-acryloyl-2,5-dimethylpiperazin-1-yl)-11′-(5-bromo-2,4-difluorophenyl)-10′-(trifluoromethyl)-2′H,4′H,6′H-spiro[oxetane-3,3′-[1,4]thiazepino[2,3,4-ij]quinazolin]-6′-one]
% CAF 10 uM @ 60 min (60 min): 81%

Structure (SMILES): C=CC(=O)N1C[C@H](C)N(c2nc(=O)n3c4c(c(-c5cccc6cnn(C)c56)c(C(F)(F)F)cc24)SC[C@@H]3CN2CCN(CC)CC2)C[C@H]1C (atropisomer, axis not shown) [Example 1381, (3S,10R)-7-((2S,5R)-4-acryloyl-2,5-dimethylpiperazin-1-yl)-3-((4-ethylpiperazin-1-yl)methyl)-10-(1-methyl-1H-indazol-7-yl)-9-(trifluoromethyl)-2,3-dihydro-5H-[1,4]thiazino[2,3,4-ij]quinazolin-5-one]
% CAF 10 uM @ 60 min (60 min): 19.1%

Structure (SMILES): C=CC(=O)N1CCN(c2nc(=O)n3c4c(c(-c5cc(Cl)c(F)cc5F)c(C(F)(F)F)cc24)SC[C@@H](OC)C3)[C@@H]2CN(S(C)(=O)=O)C[C@@H]21 [Example 1212, (3S)-8-((4aS,7aR)-4-acryloyl-6-(methylsulfonyl)octahydro-1H-pyrrolo[3,4-b]pyrazin-1-yl)-11-(5-chloro-2,4-difluorophenyl)-3-methoxy-10-(trifluoromethyl)-3,4-dihydro-2H,6H-[1,4]thiazepino[2,3,4-ij]quinazolin-6-one]
CAF (% after 1 hour): 50%

Structure (SMILES): C=CC(=O)N1CCN(c2nc(=O)n3c4c(c(-c5cc(Cl)c(F)cc5F)c(C(F)(F)F)cc24)SC[C@@H]3CN2CCN(CC)CC2)CC1 (atropisomer, axis not shown) [Example 1338, (3S,10R)-7-(4-acryloylpiperazin-1-yl)-10-(5-chloro-2,4-difluorophenyl)-3-((4-ethylpiperazin-1-yl)methyl)-9-(trifluoromethyl)-2,3-dihydro-5H-[1,4]thiazino[2,3,4-ij]quinazolin-5-one]
% CAF 10 uM @ 60 min (60 min): 99%

Structure (SMILES): C=CC(=O)N1C[C@H](C)N(c2nc(=O)n3c4c(c(-c5ccc(F)cc5F)c(C(F)(F)F)cc24)SCC2(COC2)C3)C[C@H]1C (atropisomer, axis not shown) [Example 1109, (S)-8′-((2S,5R)-4-acryloyl-2,5-dimethylpiperazin-1-yl)-11′-(2,4-difluorophenyl)-10′-(trifluoromethyl)-2′H,4′H,6′H-spiro[oxetane-3,3′-[1,4]thiazepino [2,3,4-ij]quinazolin]-6′-one]
% CAF 10 uM @ 60 min (60 min incubation): 93%

Structure (SMILES): C=CC(=O)N1C[C@H](C)N(c2nc(=O)n3c4c(c(-c5ccc(F)cc5F)c(C(F)(F)F)cc24)SCC2(COC2)C3)C[C@H]1C (atropisomer, axis not shown) [Example 1110, (R)-8′-((2S,5R)-4-acryloyl-2,5-dimethylpiperazin-1-yl)-11′-(2,4-difluorophenyl)-10′-(trifluoromethyl)-2′H,4′H,6′H-spiro[oxetane-3,3′-[1,4]thiazepino [2,3,4-ij]quinazolin]-6′-one]
% CAF 10 uM @ 60 min (60 min incubation): 96.1%
